Assay results: ChEMBL document CHEMBL1817622, “Synthesis, structure-activity relationship and biological evaluation of novel N-substituted matrinic acid derivatives as host heat-stress cognate 70 (Hsc70) down-regulators” (2011)
The source made the active and inactive calls. The rule behind the calls is not given here.

Assays:
HepG2 2.2.15 [1] = test: Inhibition of Hsc70 mRNA expression in human HepG2(2.2.15) cells at 100 ug/ml after 24 hrs by RT-PCR analysis; assay type: functional; details: HepG2 2.2.15, 24 h
Hepatitis B virus = test: Antiviral activity against Hepatitis B virus infected in human HepG2(2.2.15) cells assessed as inhibition of intracellular HBV DNA replication at 100 ug/mL for 24 hrs by RT-PCR analysis; assay type: functional; set-up: scale not given: the % may be the effect or the level left
[2] = Down regulation of Hsc70 protein level in human HepG2(2.2.15) cells after 24 hrs by RT-PCR analysis; assay type: functional, cell-based
[3] = Down regulation of Hsc70 protein level in human HepG2(2.2.15) cells at 100 ug/mL for 24 hrs by RT-PCR analysis; assay type: functional, cell-based
[4] = Down regulation of Hsc70 protein level in human HepG2(2.2.15) cells at 500 ug/mL for 24 hrs by RT-PCR analysis; assay type: functional, cell-based
HepG2 2.2.15 [5] = test: Ratio of […] to compound inhibition of mRNA expression in human HepG2(2.2.15) cells infected with Hepatitis B virus; assay type: functional

SMILES | inhibition at 100 µg/mL (HepG2 2.2.15 [1]) [%] | also measured
O=C(O)CCC[C@@H]1[C@H]2CCCN3CCC[C@@H](CN1C(=O)c1ccccc1)[C@@H]23 | 33.6 | 
COc1ccc(CN2C[C@@H]3CCCN4CCC[C@@H]([C@H]34)[C@H]2CCCC(=O)O)cc1 | 72.1 | Activity (Hepatitis B virus): 77%; Activity [2]: Dose-dependent effect; Activity [3]: Active; Activity [4]: Active; fold change (FC) (HepG2 2.2.15 [5]): 1.3
Cc1cccc(OC(C)C(=O)N2C[C@@H]3CCCN4CCC[C@@H]([C@H]34)[C@H]2CCCC(=O)O)c1 (some centres not stated) | < 10 | 
O=C1CCC[C@@H]2[C@H]3CCC[N+]4([O-])CCC[C@@H](CN12)[C@@H]34 (some centres not stated) [OXYMATRINE] | 52 | Activity (Hepatitis B virus): 56%; Activity [2]: Dose-dependent effect
COc1cccc(CN2C[C@@H]3CCCN4CCC[C@@H]([C@H]34)[C@H]2CCCC(=O)O)c1 | 55.6 | 
O=C(O)CCC[C@@H]1[C@H]2CCCN3CCC[C@@H](CN1Cc1ccccc1)[C@@H]23 | 55.9 | 
CC(=O)N1C[C@@H]2CCCN3CCC[C@@H]([C@H]23)[C@H]1CCCC(=O)O | 29.8 | 
O=C1CCC[C@@H]2[C@H]3CCCN4CCC[C@@H](CN12)[C@@H]34 [MATRINE] | 52.4 | 
C[N+]1(C)C[C@@H]2CCC[N+]3([O-])CCC[C@@H]([C@H]23)[C@H]1CCCC(=O)O (some centres not stated) | < 10 | 
O=C(O)CCC[C@@H]1[C@H]2CCCN3CCC[C@@H](CN1C(=O)CCl)[C@@H]23 | < 10 | 
COc1ccc(CN2C[C@@H]3CCC[N+]4([O-])CCC[C@@H]([C@H]34)[C@H]2CCCC(=O)O)cc1 (some centres not stated) | 69.7 | 
O=C(O)CCC[C@H]1NC[C@@H]2CCCN3CCC[C@H]1[C@H]23 [MATRINIC ACID] | 46.2 | 
CCCN1C[C@@H]2CCCN3CCC[C@@H]([C@H]23)[C@H]1CCCC(=O)O | < 10 | 
O=C(O)CCC[C@@H]1[C@H]2CCC[N+]3([O-])CCC[C@@H](CN1CC1CC1)[C@@H]23 (some centres not stated) | < 10 | 
O=C(O)CCC[C@@H]1[C@H]2CCCN3CCC[C@@H](CN1C(=O)/C=C/c1ccccc1)[C@@H]23 | < 10 | 
CCN1C[C@@H]2CCCN3CCC[C@@H]([C@H]23)[C@H]1CCCC(=O)O | < 10 | 
O=C(O)CCC[C@H]1NC[C@@H]2CCC[N+]3([O-])CCC[C@H]1[C@H]23 (some centres not stated) [OXYMATRINIC ACID] | 45.5 | 
O=C(O)CCC[C@@H]1[C@H]2CCCN3CCC[C@@H](CN1S(=O)(=O)c1ccccc1)[C@@H]23 | 22.1 | 
C[N+]1(C)C[C@@H]2CCCN3CCC[C@@H]([C@H]23)[C@H]1CCCC(=O)O | 14.1 | 
[O-][N+]12CCC[C@H]3CN[C@H](CCCCO)[C@@H](CCC1)[C@H]32 (some centres not stated) [OXYMATRINOL] | < 10 | 
O=C(O)CCC[C@@H]1[C@H]2CCCN3CCC[C@@H](CN1CC1CC1)[C@@H]23 | < 10 | 
COc1ccc(CN2C[C@@H]3CCCN4CCC[C@@H]([C@H]34)[C@H]2CCCCO)cc1 | 12.2 | 
O=CN1C[C@@H]2CCCN3CCC[C@@H]([C@H]23)[C@H]1CCCC(=O)O | < 10 | 
Cc1cccc(OCC(=O)N2C[C@@H]3CCCN4CCC[C@@H]([C@H]34)[C@H]2CCCC(=O)O)c1 | < 10 | 
O=C(O)CCC[C@@H]1[C@H]2CCC[N+]3([O-])CCC[C@@H](CN1Cc1ccccc1)[C@@H]23 (some centres not stated) | 58.2 | 
O=C(O)CCC[C@@H]1[C@H]2CCCN3CCC[C@@H](CN1CCO)[C@@H]23 | 53.7 | 
Cc1ccc(S(=O)(=O)N2C[C@@H]3CCCN4CCC[C@@H]([C@H]34)[C@H]2CCCC(=O)O)cc1 | 39.8 | 
OCCCC[C@H]1NC[C@@H]2CCCN3CCC[C@H]1[C@H]23 [MATRINOL] | 39.3 | 
OCCCC[C@@H]1[C@H]2CCCN3CCC[C@@H](CN1Cc1ccccc1)[C@@H]23 | 25.5 | 
O=C(O)CCC[C@@H]1[C@H]2CCCN3CCC[C@@H](CN1C(=O)CO)[C@@H]23 | < 10 | 
